Reference: US8575197B2, “Pyrolinone derivative and pharmaceutical composition comprising the same” (Shionogi & Co., Ltd., priority 2008, dated 2013)
pIC50: −log10 of the molar value.

Biological target: human P2X3 receptor (Homo sapiens (Human), UniProt P56373)
Experiment: P2X3 receptor inhibition, ATP-evoked Fluo-3 calcium fluorescence (FDSS 3000)
Assay type: cell-based
Details: C6BU-1 cell transfected with human P2X3 receptor gene; ATP-evoked Fluo-3 fluorescence
Summary of the method: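 C6BU-1 cells stably transfected with human P2X3, loaded with 4 μM Fluo-3-AM for 1 h at 37 °C in HEPES buffer pH 7.5 with probenecid. Compound added 5 min before 40 nM ATP solution; fluorescence followed 3 min. IC50 from ratio of peak post-ATP to baseline fluorescence.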

Sequence of human P2X3 receptor (P56373 whole entry): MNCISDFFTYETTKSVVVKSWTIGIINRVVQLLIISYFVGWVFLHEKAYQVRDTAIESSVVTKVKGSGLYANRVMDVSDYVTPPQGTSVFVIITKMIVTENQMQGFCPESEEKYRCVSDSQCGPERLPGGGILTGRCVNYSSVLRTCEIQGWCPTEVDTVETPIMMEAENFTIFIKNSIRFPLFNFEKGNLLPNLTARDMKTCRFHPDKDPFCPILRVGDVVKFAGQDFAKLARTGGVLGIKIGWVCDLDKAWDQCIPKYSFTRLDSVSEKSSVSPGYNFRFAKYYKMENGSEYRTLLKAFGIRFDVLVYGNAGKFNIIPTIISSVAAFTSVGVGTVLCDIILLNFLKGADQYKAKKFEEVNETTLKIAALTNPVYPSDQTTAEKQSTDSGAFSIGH

SMILES	pIC50
COc1ccccc1C1C(C(=O)C(C)C)=C(O)C(=O)N1c1ccc2sccc2c1 (centres unmarked) [Compound I-269]	6.46
COCCOc1ccccc1C1C(C(=O)C(C)C)=C(O)C(=O)N1c1ccc(-c2nc(C)no2)cc1 (centres unmarked) [Compound I-271]	6.27
COCCOc1ccccc1C1C(C(=O)CC(C)C)=C(O)C(=O)N1c1ccc(-c2nc(C)no2)cc1 (centres unmarked) [Compound I-273]	6.31
COCCOc1ccccc1C1C(C(=O)C(C)C)=C(O)C(=O)N1c1ccc(-c2noc(C)n2)cc1 (centres unmarked) [Compound I-275]	6.76
COCCOc1ccccc1C1C(C(=O)CC(C)C)=C(O)C(=O)N1c1ccc(-c2noc(C)n2)cc1 (centres unmarked) [Compound I-276]	6.93
Cc1nc(-c2ccc(N3C(=O)C(O)=C(C(=O)C(C)C)C3c3ccccc3OCCO)cc2)no1 (centres unmarked) [Compound I-277]	6.47
Cc1nc(-c2ccc(N3C(=O)C(O)=C(C(=O)CC(C)C)C3c3ccccc3OCCO)cc2)no1 (centres unmarked) [Compound I-278]	6.44
COc1ccccc1[C@H]1C(C(=O)CC(C)C)=C(O)C(=O)N1c1ccc(-c2ccsc2)cc1 [Compound I-280]	6.32
COCc1ccccc1C1C(C(=O)C(C)C)=C(O)C(=O)N1c1ccc(I)cc1 (centres unmarked) [Compound I-281]	6.20
COCc1ccccc1C1C(C(=O)C(C)C)=C(O)C(=O)N1c1ccc(-c2ccccc2)cc1 (centres unmarked) [Compound I-282]	6.33
COCc1ccccc1C1C(C(=O)C(C)C)=C(O)C(=O)N1c1ccc(-c2ccccc2)s1 (centres unmarked) [Compound I-283]	6.84
COc1cccc(C2C(C(=O)C(C)C)=C(O)C(=O)N2c2ccc(-c3ccsc3)cc2)c1 (centres unmarked) [Compound I-284]	6.52
COc1ccc(C2C(C(=O)C(C)C)=C(O)C(=O)N2c2ccc(-c3ccsc3)cc2)cc1 (centres unmarked) [Compound I-285]	6.19
COCCOc1cccc(C2C(C(=O)C(C)C)=C(O)C(=O)N2c2ccc(-c3ccsc3)cc2)c1 (centres unmarked) [Compound I-286]	6.17
COc1ncccc1C1C(C(=O)CC(C)C)=C(O)C(=O)N1c1ccc(-c2ccsc2)cc1 (centres unmarked) [Compound I-291]	6.89
CC(C)CC(=O)C1=C(O)C(=O)N(c2ccc(-c3ccsc3)cc2)C1c1ccccc1C(F)(F)F (centres unmarked) [Compound I-292]	6.90
CC(C)C(=O)C1=C(O)C(=O)N(c2ccc(-c3ccon3)cc2)C1c1ccccc1OC(F)(F)F (centres unmarked) [Compound I-297]	6.66
COCCOc1ccccc1C1C(C(=O)C(C)C)=C(O)C(=O)N1c1ccc(-c2ccon2)cc1 (centres unmarked) [Compound I-298]	6.57
CC(C)C(=O)C1=C(O)C(=O)N(c2ccc(-c3ccsc3)cc2)C1c1ccccc1C(F)(F)F (centres unmarked) [Compound I-300]	6.94
CC(C)CC(=O)C1=C(O)C(=O)N(c2ccc(-c3ccon3)cc2)C1c1ccccc1OC(F)F (centres unmarked) [Compound I-307]	6.80
CC(C)CC(=O)C1=C(O)C(=O)N(c2ccc(-c3ccon3)cc2)C1c1ccccc1OC(F)(F)F (centres unmarked) [Compound I-308]	6.71

SMILES	pIC50
COCCOc1ccccc1C1C(C(=O)CC(C)C)=C(O)C(=O)N1c1ccc(-c2ccon2)cc1 (centres unmarked) [Compound I-309]	6.74
COCc1ccccc1C1C(C(=O)C(C)C)=C(O)C(=O)N1c1ccc(-c2noc(C)n2)cc1 (centres unmarked) [Compound I-310]	6.47
COCOc1ccccc1C1C(C(=O)C(C)C)=C(O)C(=O)N1c1ccc(-c2noc(C)n2)cc1 (centres unmarked) [Compound I-311]	6.92
Cc1nc(-c2ccc(N3C(=O)C(O)=C(C(=O)C(C)C)C3c3ccccc3OC(F)F)cc2)no1 (centres unmarked) [Compound I-313]	6.49
Cc1nc(-c2ccc(N3C(=O)C(O)=C(C(=O)C(C)C)C3c3ccccc3OC(F)(F)F)cc2)no1 (centres unmarked) [Compound I-314]	6.48
COCc1ccccc1C1C(C(=O)CC(C)C)=C(O)C(=O)N1c1ccc(-c2noc(C)n2)cc1 (centres unmarked) [Compound I-315]	6.60
COCOc1ccccc1C1C(C(=O)CC(C)C)=C(O)C(=O)N1c1ccc(-c2noc(C)n2)cc1 (centres unmarked) [Compound I-316]	6.89
Cc1nc(-c2ccc(N3C(=O)C(O)=C(C(=O)CC(C)C)C3c3ccccc3OC(F)F)cc2)no1 (centres unmarked) [Compound I-318]	6.48
Cc1nc(-c2ccc(N3C(=O)C(O)=C(C(=O)CC(C)C)C3c3ccccc3OC(F)(F)F)cc2)no1 (centres unmarked) [Compound I-319]	6.65
COc1ncccc1C1C(C(=O)C(C)C)=C(O)C(=O)N1c1ccc(-c2csc(C)c2)cc1 (centres unmarked) [Compound I-320]	6.56
CC(C)CC(=O)C1=C(O)C(=O)N(c2ccc(-c3ccon3)cc2)C1c1ccccc1OCCO (centres unmarked) [Compound I-323]	6.51
COCc1ncccc1C1C(C(=O)CC(C)C)=C(O)C(=O)N1c1ccc(-c2ccsc2)cc1 (centres unmarked) [Compound I-324]	6.96
COC1=C(C(=O)CC(C)C)C(c2ccccc2OC)N(c2ccc(-c3ccc(C)s3)cc2)C1=O (centres unmarked) [Compound I-329]	6.24
COc1ccc(CC(=O)C2=C(O)C(=O)N(c3ccc(-c4noc(C)n4)cc3)C2C2CCCCC2)cc1 (centres unmarked) [Compound I-331]	6.14
COc1ncccc1C1C(C(=O)C(C)C)=C(O)C(=O)N1c1ccc(-c2ccc(C)s2)cc1 (centres unmarked) [Compound I-332]	6.55
COc1ncccc1C1C(C(=O)CC(C)C)=C(O)C(=O)N1c1ccc(-c2ccc(C)s2)cc1 (centres unmarked) [Compound I-336]	6.45
Cc1ccc(-c2ccc(N3C(=O)C(O)=C(C(=O)CC(C)C)C3c3ccccc3OC(F)F)cc2)s1 (centres unmarked) [Compound I-337]	6.99
Cc1ccc(-c2ccc(N3C(=O)C(O)=C(C(=O)CC(C)C)C3c3ccccc3OC(F)(F)F)cc2)s1 (centres unmarked) [Compound I-338]	6.83
COc1ccccc1C1C(C(=O)CC(C)C)=C(O)C(=O)N1c1ccc(-c2cc(C)no2)cc1 (centres unmarked) [Compound I-339]	6.05
COc1ncccc1C1C(C(=O)CC(C)C)=C(O)C(=O)N1c1ccc(-c2ccoc2)cc1 (centres unmarked) [Compound I-340]	6.47
Cc1cc(-c2ccc(N3C(=O)C(O)=C(C(=O)CC(C)C)C3c3ccccc3OC(F)F)cc2)on1 (centres unmarked) [Compound I-341]	6.29

Now from value to molecule:

pIC50	SMILES
7.85	COCOc1ccccc1C1C(C(=O)C(C)C)=C(O)C(=O)N1c1ccc(-c2ccc(C)s2)cc1 (centres unmarked) [Compound I-264]
7.55	COCc1ccccc1C1C(C(=O)C(C)C)=C(O)C(=O)N1c1ccc(-c2csc(C)c2)cc1 (centres unmarked) [Compound I-265]
7.60	COCc1ccccc1C1C(C(=O)C(C)C)=C(O)C(=O)N1c1ccc(-c2ccc(C)s2)cc1 (centres unmarked) [Compound I-266]
7.85	COCCOc1ncccc1C1C(C(=O)C(C)C)=C(O)C(=O)N1c1ccc(-c2ccc(C)s2)cc1 (centres unmarked) [Compound I-267]
7.49	COCCOc1ncccc1C1C(C(=O)C(C)C)=C(O)C(=O)N1c1ccc(-c2csc(C)c2)cc1 (centres unmarked) [Compound I-268]
7.80	COc1ccccc1[C@@H]1C(C(=O)CC(C)C)=C(O)C(=O)N1c1ccc(-c2ccsc2)cc1 [Compound I-279]
7.44	COc1ccc(C(=O)C2=C(O)C(=O)N(c3ccc(-c4ccsc4)cc3)C2C2COC(C)(C)OC2)cn1 (centres unmarked) [Compound I-288]
7.29	CC(C)CC(=O)C1=C(O)C(=O)N(c2ccc(-c3ccsc3)cc2)C1c1ccccc1OC(F)F (centres unmarked) [Compound I-290]
7.92	CC(C)CC(=O)C1=C(O)C(=O)N(c2ccc(-c3ccsc3)cc2)C1c1ccccc1OC(C)C (centres unmarked) [Compound I-293]
8.10	CC(C)Oc1ccccc1C1C(C(=O)C(C)C)=C(O)C(=O)N1c1ccc(-c2ccsc2)cc1 (centres unmarked) [Compound I-299]
7.74	CC(C)C(=O)C1=C(O)C(=O)N(c2ccc(-c3ccsc3)cc2)C1c1ccccc1OC(F)F (centres unmarked) [Compound I-301]
7.47	CC(C)C(=O)C1=C(O)C(=O)N(c2ccc(-c3ccsc3)cc2)C1c1ccccc1OC(F)(F)F (centres unmarked) [Compound I-302]
7.51	COCc1ccccc1C1C(C(=O)CC(C)C)=C(O)C(=O)N1c1ccc(-c2ccc(C)s2)cc1 (centres unmarked) [Compound I-303]
7.68	COCCOc1ccccc1C1C(C(=O)CC(C)C)=C(O)C(=O)N1c1ccc(-c2ccc(C)s2)cc1 (centres unmarked) [Compound I-304]
7.70	COCOc1ccccc1C1C(C(=O)CC(C)C)=C(O)C(=O)N1c1ccc(-c2ccc(C)s2)cc1 (centres unmarked) [Compound I-305]
7.27	CC(C)CC(=O)C1=C(O)C(=O)N(c2ccc(-c3ccon3)cc2)C1c1ccccc1OC(C)C (centres unmarked) [Compound I-306]
7.27	Cc1nc(-c2ccc(N3C(=O)C(O)=C(C(=O)C(C)C)C3c3ccccc3OC(C)C)cc2)no1 (centres unmarked) [Compound I-312]
7.14	Cc1nc(-c2ccc(N3C(=O)C(O)=C(C(=O)CC(C)C)C3c3ccccc3OC(C)C)cc2)no1 (centres unmarked) [Compound I-317]
7.15	Cc1cc(-c2ccc(N3C(=O)C(O)=C(C(=O)C(C)C)C3c3ccccc3OC(F)F)cc2)cs1 (centres unmarked) [Compound I-321]
6.99	Cc1cc(-c2ccc(N3C(=O)C(O)=C(C(=O)C(C)C)C3c3ccccc3OC(F)(F)F)cc2)cs1 (centres unmarked) [Compound I-322]
7.74	COc1cc(F)ccc1C1C(C(=O)C(C)C)=C(O)C(=O)N1c1ccc(-c2ccsc2)cc1 (centres unmarked) [Compound I-325]
7.57	COc1cc(F)ccc1C1C(C(=O)CC(C)C)=C(O)C(=O)N1c1ccc(-c2ccsc2)cc1 (centres unmarked) [Compound I-326]
7.03	COc1ccccc1C1C(C(=O)CC(C)C)=C(O)C(=O)N1c1ccc(-c2ccc(C)s2)cc1 (centres unmarked) [Compound I-327]
7.19	Cc1ccc(-c2ccc(N3C(=O)C(O)=C(C(=O)CC(C)C)C3c3ccccc3OCCO)cc2)s1 (centres unmarked) [Compound I-328]
7.15	CC(C)CC(=O)C1=C(O)C(=O)N(c2ccc(-c3ccsc3)cc2)C1c1ccccc1OC(F)(F)F (centres unmarked) [Compound I-330]
7.24	Cc1ccc(-c2ccc(N3C(=O)C(O)=C(C(=O)C(C)C)C3c3ccccc3OC(F)F)cc2)s1 (centres unmarked) [Compound I-333]
7.11	Cc1ccc(-c2ccc(N3C(=O)C(O)=C(C(=O)C(C)C)C3c3ccccc3OC(F)(F)F)cc2)s1 (centres unmarked) [Compound I-334]
7.17	CC(C)CC(=O)C1=C(O)C(=O)N(c2ccc(-c3ccoc3)cc2)C1c1ccccc1OC(F)F (centres unmarked) [Compound I-342]
7.11	CC(C)CC(=O)C1=C(O)C(=O)N(c2ccc(-c3ccoc3)cc2)C1c1ccccc1OC(F)(F)F (centres unmarked) [Compound I-343]
